Test results from patent US20230130791A1, “A Combined Inhibition of EGFR and NRF2 in The Treatment of Malignant Glioma” (United States Government as represented by the Department …, priority 2020, published 2023).
Where two headings read alike, the source gives them in different places.

Tests used:
[1] = Human, cited from earlier work
[2] = Mouse, cited from earlier work; for T½: parent drug (SASP for Sulfazaline)
GBM12 cells [3] = assay: RNAseq transcriptome and pathway analysis after erlotinib; assay type: cell-based, human
Source text: These q-values are corrected from p-values of the hypergeometric test, for multiple testing using the false discovery rate (FDR) method.

Mayo PDX GBM12 cells = assay: GSH/GSSG ratio by metabolite profiling (LC-MS/MS); assay type: cell-based, human; settings: GBM12, 24 hour exposure, means±SD of four experiments
Source text: Determination of GSH levels will be undertaken at a Biochemistry Core Facility at UT Southwestern using metabolite profiling as previously described (Krall, et al. (2017) KEAP1 loss modulates sensitivity to kinase targeted therapy in lung cancer, Elife 6; Yuan, et al. (2012) Nat Protoc 7, 872-881). Samples will be analyzed by liquid chromatography tandem mass spectrometry (LC-MS/MS) using positive ion/negative ion polarity switching via selected reaction monitoring (SRM) on a 5500 QTRAP hybrid triple quadrupole mass spectrometer. Peaks will be integrated using MultiQuant 2.1 data analysis software (AB/SCIEX). The ratio of reduced intracellular glutathione to oxidized glutathione is a measure of oxidative stress.
Data are presented as means±SD of four experiments. […] GSH, reduced glutathione; GSSG, oxidized glutathione.

GBM 12 or GBM6 cells = assay: ROS by MitoTracker Red CM-H2XRos; assay type: cell-based, human; settings: erlotinib 1 uM, 24 hours
Source text: Oxidative stress. Without wishing to be bound by theory, it is hypothesized that a sudden inhibition of EGFR signaling may increase oxidative stress and thus activate Nrf2. Previous studies have reported that EGFR inhibition leads to increased oxidative stress in lung and head and neck cancers (Orcutt, et al. (2011) Erlotinib-mediated inhibition of EGFR signaling induces metabolic oxidative stress through NOX4, Cancer Res 71, 3932-3940; Qian, et al. (2009) Clin Exp Pharmacol Physiol 36, 487-494). […] MitoTracker® Red CM-H2XRos (Fisher), a reduced nonfluorescent dye which is taken up passively by living cells, will be used. In the mitochondria, the dye is oxidized by superoxide, resulting in the emission of red fluorescence.
MitoTracker® Red CM-H2XRos (Fisher) was added to culture media at a concentration of 100 nM and incubated at 37° C. in a humidified incubator containing 5% CO2 for 30 minutes, the cells were then fixed in ice-cold methanol for 15 min at −20° C. followed by fluorescence microscopy.

p21 = p21 response to erlotinib (FIG. 12); assay type: cell-based; settings: in response to erlotinib
Source text: p21. p21Cip1/WAF1 is a cyclin-dependent kinase inhibitor that regulates the cell cycle and acts as an antioxidant. The antioxidant function of p21 is mediated through stabilization of Nrf2. Thus, p21 is an interesting target for study.

Keap1 = assay: Cellular level of total Keap1; assay type: cell-based; settings: data not shown
[4] = Toxicity in mice by gavage; settings: 50-100 mg/kg by gavage
glioma cells = assay: Cell survival/viability assays in glioma cells (general statements); assay type: cell-based; settings: for synergy with EGFR inhibition in cell survival assays: FIG. 5
GBM12 cells [5] = assay: Alamarblue cell viability assay, GBM12; assay type: cell-based, human; settings: GBM12, 72 hours; ML385 1 μm, INH 1 μm, sulfasalazine 5 μm
Source text: ML385 (1 μm) and isoniazid (INH 1 μm) are Nrf2 inhibitors while Erastin and sulfasalazine (5 μm) are xCT inhibitors.

preclinical GBM models = assay: Preliminary orthotopic GBM experiments (FIG. 6, general statements); assay type: in vivo
[6] = in vivo; cited from earlier work
[7] = parent drug (SASP for Sulfazaline)
[8] = parent drug (SASP for Sulfazaline), dose per Table 5
[9] = TNF inhibitor added to erlotinib

Question: Which AUC [1, 7] does the source give for CN(C)C/C=C/C(=O)Nc1cc2c(Nc3ccc(F)c(Cl)c3)ncnc2cc1O[C@H]1CCOC1 [Afatinib, afatinib] here?
Answer: The AUC was “(~1-2 μM * hr”.

Question: What about the Cmax [1, 7] of the same molecule?
Answer: Its Cmax is 30 to 40 ng/mL.

Question: And the T½ [1, 7]?
Answer: Its T½ is 60.3 h.

Question: And the AUC [1, 8]?
Answer: The AUC was 459 to 956 ng·h/mL.

Question: What about the Cmax ([1]; read-out: Cmax) of the same molecule?
Answer: Its Cmax is 60 to 80 nM.

Question: What about the AUC ([2]; 30 mg/kg QD) of the same molecule?
Answer: The AUC was “(2375 nM * hr”.

Question: And the Cmax ([2]; 30 mg/kg QD)?
Answer: Its Cmax is 417 nM.

Question: And the T½ [2]?
Answer: The T½ was 5 h.

Question: For C#Cc1cccc(Nc2ncnc3cc(OCCOC)c(OCCOC)cc23)c1 [Erlotinib, erlotinib], which “Genes, Erl-induced pathway” value (GBM12 cells [3]; Axon guidance) is on record?
Answer: The value was 42.

Question: And the “Genes, Erl-induced pathway” value (GBM12 cells [3]; Ectoderm Differentiation)?
Answer: Its value is 35.

Question: What about the “Genes, Erl-induced pathway” value (GBM12 cells [3]; Glutathione conjugation) of the same molecule?
Answer: Its value is 14.

Question: What about the “Genes, Erl-induced pathway” value (GBM12 cells [3]; NRF2 pathway) of the same molecule?
Answer: Its value is 40.

Question: What about the “Genes, Erl-induced pathway” value (GBM12 cells [3]; Validated targets of C-MYC transcriptional repression) of the same molecule?
Answer: The value was 23.

Question: What about the “Genes, Erl-induced pathway” value (GBM12 cells [3]; Validated transcriptional targets of Tap63 isoforms) of the same molecule?
Answer: Its value is 19.

Question: What about the “genes upregulated by RNAseq” value (GBM12 cells [3]; erlotinib 1 μM, 24 hours, GBM 12 cells) of the same molecule?
Answer: Its value is 3635.

Question: And the “GPX3 expression in GBM” value (GBM12 cells [3]; in response to erlotinib (FIG. 3))?
Answer: The value was “upregulated”.

Question: What about the GSH/GSSG (Mayo PDX GBM12 cells) of the same molecule?
Answer: The GSH/GSSG was 68.5 ± 15.2.

Question: And the “ROS (Mitotracker dye)” value (GBM 12 or GBM6 cells)?
Answer: The value was “increase in ROS”.

Question: And the p21 level (p21)?
Answer: Its p21 level is “not upregulated”.

Question: What about the “cellular level of total Keap1” value (Keap1) of the same molecule?
Answer: The value was “not changed”.

Question: What about the Cmax [1, 7] of the same molecule?
Answer: The Cmax was 872 ng/mL.

Question: And the AUC [1, 8]?
Answer: Its AUC is 11,860 ng * hr/ml.

Question: What about the AUC ([2]; 12.5 mg/kg QD) of the same molecule?
Answer: The AUC was 27,042 ng * hr/ml.

Question: And the Cmax ([2]; 12.5 mg/kg QD)?
Answer: Its Cmax is 3,513 ng/mL.

Question: What about the T½ [2] of the same molecule?
Answer: Its T½ is 3.1 h.

Question: What about the toxicity [4] of the same molecule?
Answer: The toxicity was “without significant toxicity”.

Question: Which “synergy with EGFR inhibition, cell viability assay” value (glioma cells; erlotinib 1 μM and/or ethionamide 1 μM, 72 hours) does the source give for CCc1cc(C(N)=S)ccn1 [Ethionamide, ethionamide] here?
Answer: Its value is “synergizes with EGFR inhibition”.

Question: Which “sensitization of cells to erlotinib, cell viability” value (shortened to “sensitization of cells to erlotinib”) (GBM12 cells [5]) does the source give for NNC(=O)c1ccncc1 [INH, isoniazid] here?
Answer: Its value is “sensitizes”.

Question: And the “synergy with EGFR inhibition in cell survival assays” value (glioma cells)?
Answer: The value was “synergizes with EGFR inhibition”.

Question: What about the “tumor growth / efficacy in orthotopic experiments” value (preclinical GBM models) of the same molecule?
Answer: Its value is “no effect”.

Question: What about the AUC ([1]; 150 mg QD for 6 months) of the same molecule?
Answer: The AUC was 19700 ng·h/mL.

Question: And the Cmax ([1]; 150 mg QD for 6 months)?
Answer: Its Cmax is 4830 ng/mL.

Question: What about the CNS penetration [6] of the same molecule?
Answer: Its CNS penetration is “highly CNS penetrable”.

Question: What about the AUC ([2]; 25 mg/kg QD for 4 wks) of the same molecule?
Answer: Its AUC is 27.3 mg·h/L.

Question: What about the Cmax ([2]; 25 mg/kg QD for 4 wks) of the same molecule?
Answer: Its Cmax is 22 µg/mL.

Question: With Cc1ccccc1C(=O)N1CCc2cc(-c3nc(NC(=O)Cc4ccc5c(c4)OCO5)sc3C)ccc21 [ML385] as the molecule, how does the “sensitization of cells to erlotinib” value (GBM12 cells [5]) read?
Answer: Its value is “sensitizes”.

Question: With O=C(O)c1cc(/N=N/c2ccc(S(=O)(=O)Nc3ccccn3)cc2)ccc1O [sulfasalazine] as the molecule, how does the “sensitization of cells to erlotinib” value (GBM12 cells [5]) read?
Answer: The value was “sensitizes”.

Question: And the “synergy with EGFR inhibition in cell survival assays” value (glioma cells)?
Answer: Its value is “synergizes with EGFR inhibition”.

Question: What about the AUC [1, 7] of the same molecule?
Answer: The AUC was “(122 μM * hr”.

Question: What about the Cmax [1, 7] of the same molecule?
Answer: The Cmax was 5351 ng/mL.

Question: What about the T½ [1, 7] of the same molecule?
Answer: The T½ was 9.8 h.

Question: What about the AUC [1, 8] of the same molecule?
Answer: Its AUC is 48,500 ng * hr/ml.

Question: And the “AUC of SASP” value ([2]; 67.5 mg/kg QD for 3 wks, analyte SASP)?
Answer: The value was “SASP: 21 μM * hr”.

Question: And the T½ [2]?
Answer: Its T½ is 0.9 h.

Question: For etanercept, which “block of the 40 NRF2 target genes induced by erlotinib” value (GBM12 cells [3]; [9]) is on record?
Answer: Its value is “could not be blocked”.

Question: What about the “upregulation of erlotinib induced genes blocked” value (GBM12 cells [3]; [9]) of the same molecule?
Answer: Its value is 25%.
